Data on eight compounds can be found in patent US20240391872A1, “PHENOXY-ACETYL-THIOUREIDO-BENZENESULFONAMIDE DERIVATIVES, AND THEIR USES” (priority 2021, published 2024).

As usually defined, the EC50 is the concentration giving half of the maximal effect. One may read the IC50 as the midpoint of a concentration-inhibition curve.

Series [1] has as its system SARS-CoV-2. The experiment in a line: microbe, parasite or virus in culture. Format: cell-based. The note with it: for IC50: SARS-CoV-2 MOI 0.01, 48 h, vRNA RT-qPCR; for antiviral activity (relative SARS-CoV-2 vRNA levels): MOI 0.01, 48 h, indicated concentrations.
In series [2] the test system is SARS-CoV-2. Kind of series: SARS-CoV-2 infection of human airway epithelia (HAE). Format: cell-based. The settings on record: 10 μM; for viral RNA by RT-qPCR: wild type CoV2 MOI 0.01, 4 days. The protocol: FIG. 33 HAE cells were either untreated (Mock) or treated with 10 μM of RG10 and then infected with SARS-CoV-2 mNeonGreen virus at MOI 0.1. After 4 days, cells were fixed and stained for CoV2 spike protein and actin filaments (phalloidin staining). Z-stack images were acquired using a confocal microscope and processed using ImageJ to produce an average intensity image for each individual channel. Scale bar=20 μm.
FIG. 34 HAE cells were either untreated (Mock) or treated with 10 μM of RG10 and then infected with SARS-CoV-2 mNeonGreen virus at MOI 0.1. After 4 days, cells were fixed and stained for CoV2 spike protein and actin filaments (phalloidin staining). Z-stack images were acquired using a confocal microscope and processed using ImageJ to produce an average intensity image for each individual channel. Scale bar=20 μm.
FIG. 35 3D representation of the images from [FIG. 33] and [FIG. 34] using the Imaris software. Scale bar=20 μm.
FIG. 37 Same samples from [FIG. 36] were processed to measure by RT-qPCR, relative vRNA levels normalized by Rpl27 RNA expression. The bars are means+/−SD from two pooled independent experiments. Student's t-test **p value<0.01; ***p value<0.005; ****p value<0.001.
FIG. 42 HAE cells were treated with 10 μM of RG10, RG10b, and Remdesivir and then infected for 4 days with CoV2 at MOI 0.01. Cells were then processed for RNA extraction and RT-qPCR experiments. […] Student's t-test *p value<0.05 **p value<0.01; ***p value<0.005.
Huh7.5.1 (Zhong J. et al. (2005) Proceedings of the National Academy of Sciences of the United States of America 102:9294-9), Vero E6 (ECACC #85020206), Caco2, and HEK 293T cells were cultured in DMEM GlutaMAX (Thermo Fisher Scientific) supplemented with 10% fetal calf serum and penicillin-streptomycin (500 μg/ml; GIBCO). HAE cells (Epithelix) were cultured in Mucilair media at the basal side and maintained at air-liquid interface. Apical washes were performed each 2-3 days by temporarily adding Mucilair media for 30 minutes. All cell types were maintained at 37° C. in a 5% CO2 atmosphere.
Cells were lysed and RNA immediately extracted using the Luna Cell Ready Lysis Module according to the manufacturer's protocol (New England Biolabs). RT-qPCR on extracted RNA was performed using the Luna One-Step RT-qPCR Kit (New England Biolabs). The samples were analyzed using a Lightcycler 480 instrument (Roche) using the following thermal cycle: Reverse transcription step at 55° C. for 15 min, initial denaturation at 95° C. for 2 min. Then, 40 cycles were programmed consisting of 15 s of denaturation at 95° C. followed by 30 s of annealing/extension at 55°. Fluorescent data collection was performed at the end of each cycle. SARS-CoV-2 viral RNA was detected using the N1 probe that targets specifically the N protein. […]
In general terms: Quantitative PCR measures a nucleic acid by following its amplification.

Series [3] can be described thus: Pharmacokinetics experiments in mice. Format: in vivo. The settings on record: blood. The source says:
(§1) The low potency of RG10 in HAE could be attributed to its weak stability and therefore, the inventor designed a novel RG10 derivative, which the inventor called RG10b. This derivative harbors a modification shielding a molecular weakness present in RG10.

The nature of series [4]: Innocuity assessment in mice (weight). Format: in vivo. The settings on record: concentrations up to 10 mg/kg.
Text: Two mice were used per condition.
as §1

The subject of series [5] is SARS-CoV-2. The experiment in a line: microbe, parasite or virus in culture. Type of series: cell-based.
For series [6], the system named is ZIKV. Type of series: cell-based, Zika virus. The settings on record: MOI 0.3, 24 h.
Series [7] is described as follows: Cytotoxicity, LDH release assay. Format: cell-based. Background: Release of lactate dehydrogenase indicates damage to the cell membrane.
The subject of series [8] is SARS-CoV-2. Type of series: cell-based. The note with it: Caco2 cells, 10 μM, MOI 0.01, 48 h.
Series [9] has as its system HCoV-229E-Renilla. Format: cell-based, human coronavirus 229E.
Series [10] deals with SARS-CoV-2. The experiment in a line: Time-of-addition experiment, CoV2 in Vero E6 cells. Format: cell-based.
The subject of series [11] is sXBP-1. Kind of series: ER stress mediator RNA levels by RT-qPCR in Huh7.5.1 cells. Type of series: cell-based, human.
The subject of series [12] is endoplasmic reticulum. Kind of series: Confocal imaging of ER morphology and compound localization in Huh7.5.1 cells. Type of series: cell-based, human. The settings on record: 50 μM, 6 h, Calnexin staining. The protocol: FIG. 15 Huh7.5.1 cells were treated with 25 µM of RG10-Rhod or free Rhodamine for 3 h. Cells were fixed and stained using an anti-Calnexin antibody as a marker for ER membranes and DAPI for nuclear staining. One channel corresponds to rhodamine fluorescence. The micrographs show the individual channels and merge that have been acquired using confocal microscopy and processed using ImageJ. Scale bar=10 μm.
FIG. 17 Huh.7.5.1 cells were treated with 50 μM of RG10 for 6 h and then were processed for confocal imaging.
Cells were then fixed and stained using an anti-Calnexin antibody as a marker for ER membranes and DAPI for nuclear staining. The micrographs show the individual channels and merge that have been acquired using confocal microscopy and processed using ImageJ. Scale bar=10 μm.
Cells grown on #1.5 glass coverslips were fixed with 4% PFA for 15 min. Cells were then permeabilized with 0.1% Triton X100 and saturated with 0.2% BSA. Then, primary antibody incubation was performed for 1 h. After a series of PBS washes, secondary antibodies were added for 30 min. DAPI staining was performed for 10 min to obtain nuclear staining. Coverslips were mounted on glass slides using Mowiol mounting media. Images were acquired using a Leica SP5 confocal microscope.

Series [13] deals with N-mRuby3 CoV2. Kind of series: Live cell imaging and tracking of N-mRuby3 CoV2 particles in Huh7.5.1 cells. Format: cell-based, SARS-CoV-2.
Series [14] relates to sXBP1. Kind of series: sXBP1 RNA levels in HAE cells infected with CoV2. The note with it: 10 μM, CoV2 MOI 0.01, 4 days. Format: cell-based, human. The method, then: FIG. 36 HAE cells were treated with 10 μM of RG10 and Remdesivir and then infected with wild type CoV2 at MOI 0.01 for 4 days. Graphs show relative sXBP1 RNA levels normalized with GAPDH RNA expression.
Cells were lysed and RNA immediately extracted using the Luna Cell Ready Lysis Module according to the manufacturer's protocol (New England Biolabs). RT-qPCR on extracted RNA was performed using the Luna One-Step RT-qPCR Kit (New England Biolabs). The samples were analyzed using a Lightcycler 480 instrument (Roche) using the following thermal cycle: Reverse transcription step at 55° C. for 15 min, initial denaturation at 95° C. for 2 min. Then, 40 cycles were programmed consisting of 15 s of denaturation at 95° C. followed by 30 s of annealing/extension at 55°. Fluorescent data collection was performed at the end of each cycle. SARS-CoV-2 viral RNA was detected using the N1 probe that targets specifically the N protein. For normalization, primers targeting Rpl27 or GAPDH were utilized.

The test system of series [15] is Vero E6 cells. The note with it: cited from earlier work.
The conditions of series [16]: infected non-human primates; cited from earlier work.
The mark [17] stands for this setting: Severe acute respiratory syndrome coronavirus 2, Vero C1008, Vero E6 cells.
Where [18] appears, read: Huh 7.5.1 cells, 10 μM, MOI 0.01, 48 h.
Where [19] appears, read: Huh 7.5.1 cells, 25 μM, MOI 0.01, 48 h.
The mark [20] stands for this setting: Huh7.5.1 cells, 10 μM, MOI 0.5, 48 h.

“Also recorded” adds a separate entry of the source. Like-named read-outs stand apart in the source and are kept apart here.

As for `COc1ccc(N2CCC(NC(=S)Nc3ccc(S(=O)(=O)NC4CCCCC4)cc3)C2)cc1` (stereo not drawn) [RG10b], in series [1] (Severe acute respiratory syndrome coronavirus 2, Vero C1008, Vero E6 cells, CoV2 48 h (FIGS. 38 and 39)), the half-maximal effective concentration (EC50) was less than 1000 nM. Moreover, the IC50 in series [1] (setting [17]) is roughly 990 nM. For the same compound, the “antiviral activity (relative SARS-CoV-2 vRNA levels)” value in series [1] (Vero E6 cells) is recorded as “more potent than RG10”. Further, the “viral RNA by RT-qPCR” value in [2] was “more potent than RG10, showing antiviral activity similar to Remdesivir”. Besides, in [3], the “half-life relative to RG10” value is given as “more than 3 fold”. The half-life in series [3] (mouse, read-out: pharmacokinetic half-life / stability in vivo) was greater than 2 h. Also, the “innocuity / toxicity in mice” value in series [4] is on record as “well supported by mice at concentrations up to 10 mg/kg; also recorded: no toxicity observed”.

Take `COc1ccc(N2CCC(NC(=S)Nc3ccc(S(=N)(=O)NC4CCCCC4)cc3)C2)cc1` (stereo not drawn) [RG27-1]: the “antiviral activity (relative SARS-CoV-2 vRNA levels)” value in [5] (setting [18]) is “cannot be observed”; in [5] (setting [19]), “harbor also an antiviral activity”.

For Tunicamycin [reference compound], the “antiviral activity against CoV2 (relative vRNA levels)” value in series [1] is reported as “active against both viruses”. For the same compound, the “antiviral activity against ZIKV (relative vRNA levels)” value in [6] (Vero E6, 1 μM) was “active against both viruses”.

In series [1] (setting [17]), `COc1ccc(OCCNC(=S)Nc2ccc(S(=O)(=O)NC3CCCCC3)cc2)cc1` [RG10] gave an IC50 of 1550 nM. Further, in [1] (Vero E6 cells), the “antiviral activity (relative SARS-CoV-2 vRNA levels)” value was “potent antiviral molecule with similar activity levels as Remdesivir; also recorded: high CoV2 antiviral activity”. Further, the cytotoxicity result in [7] is “did not show cytotoxicity at working concentrations”; in series [7] (LDH release, working concentrations) it was “very low cytotoxicity compared to Latrunculin, jasplakinolide and cytocalasin D”. In addition, the “CoV2 antiviral activity (relative vRNA levels)” value in series [5] (setting [18]) and in series [8] was “high CoV2 antiviral activity” in each case. For the same compound, the “neosynthesized Spike protein, Western blot” value in series [5] (setting [20]) is “could barely be detected”. For the same compound, in [5] (setting [20]), the “viral RNA synthesis, dsRNA immunolabeling” value is listed as “prevents viral RNA synthesis”. Besides, the “viral protein synthesis, microscopy and flow cytometry” value in series [5] (setting [20]) is listed as “prevent viral protein synthesis”. Besides, the “potency at high multiplicity of infection” value in series [5] (Huh7.5.1 cells, 10 μM, indicated MOI, 48 h) was “retained potency at high multiplicity of infection (MOI) similar to Rem”. This compound registered an EC50 in [5] (Severe acute respiratory syndrome coronavirus 2, Huh-7.5.1, potency in Huh7.5.1 cells (FIG. 3)) of roughly 1500 nM. The HAE viability entry in series [2] (4 days) is “viability was similar”. For the same compound, in [2] (MOI 0.1, 4 days), the “viral infection, fluorescent mNeonGreen virus” value is recorded as “decreases viral infection”. Further, the “viral RNA by RT-qPCR” value in series [2] is on record as “decreased by RG10, although the extent of the decrease was much lower than Remdesivir treatment”. For the same compound, the “antiviral activity against ZIKV (relative vRNA levels)” value in [6] (Vero E6, 10 μM) was “no detectable effect on ZIKV; also recorded: unable to inhibit ZIKV replication”. Also, the “antiviral activity against HCoV-229E” value in series [9] is recorded as “significant antiviral activity, although potency was lower”. For the same compound, the “antiviral activity, vRNA levels, RG10 Pre” value in [10] (Vero E6, MOI 0.1, 10 μM during the first 4 h of infection and washed-out) is recorded as “no antiviral activity when incubated only during virus entry”. Besides, the “vRNA expression levels, RG10 Post” value in series [10] (Vero E6, MOI 0.1, 10 μM starting at 4 h post-infection) is “significantly decreased vRNA expression levels”. Besides, the “viral N protein and dsRNA levels by flow cytometry, entry steps” value in series [10] (Vero E6, MOI 0.1, 10 μM, 24 h) is on record as “some inhibition was also observed at the entry steps”. For the same compound, the “viral N protein and dsRNA levels by flow cytometry, post entry” value in series [10] (Vero E6, MOI 0.1, 10 μM, 24 h) was “strong antiviral activity post entry”. Further, the “sXBP-1 RNA levels” value in [11] (10 μM) is “no difference was observed between RG10 and RG7”; in series [11] (50 μM, 6 h), “enriched”; in series [14] it was “upregulated”. Also, in [12], the ER morphology result is listed as “perturbed ER morphology”. In [13], the “mean particle speed of virus” value is “slowed down virus movement to the ER”.

Take `NC(=O)c1nc(F)c[nH]c1=O` [favipiravir]: the potency in vitro result in [15] (in vitro) is “very low potency in vitro”.

Turning to `CCN(CCO)CCCC(C)Nc1ccnc2cc(Cl)ccc12` (stereo not drawn) [Hydroxychloroquine], the EC50 in [15] (Vero E6 cells) is roughly 2000 nM. For the same compound, the viral loads result in series [16] is reported as “does not decrease the viral loads”.

Take `O[C@@H](CS)[C@@H](O)CS` [DTT, reference compound]: the “sXBP-1 RNA levels” value in series [11] (1 mM, 6 h, positive control of ER stress) is given as “enriched”.

With `COc1ccc(N2CCCC(NC(=S)Nc3ccc(S(=O)(=O)NC4CCCCC4)cc3)C2)cc1` (stereo not drawn) [RG27-8], the “antiviral activity (relative SARS-CoV-2 vRNA levels)” value in series [5] (setting [18]) is recorded as “cannot be observed”; in series [5] (setting [19]), “harbor also an antiviral activity”.
